The values that follow are results of earlier work, collected in US11931454B2, “Wet-packed soft hydrogel ocular inserts” (Alcon Inc., priority 2019, dated 2024).

For the data set the following is noted: arylboronic acid group of the monomer.

By pKa is commonly meant the negative logarithm of the acid dissociation constant. With 3-(meth)acrylamidophenylboronic acid, the pKa was about 8.2. On to “4-(1,6-Dioxo-2,5-diaza-7-oxamyl)phenylboronic acid”, for which the pKa was about 7.8. As for `C=Cc1ccc(CN(C)C)c(B(O)O)c1` [2-Dimethylaminomethyl-5-vinylphenylboronic acid], the pKa was under 7.8.

`C=CCCS(=O)(=O)c1ccc(B(O)O)cc1` [4-(3-Butenylsulfonyl)phenylboronic acid]: the pKa was about 7.1.

`C=CCNS(=O)(=O)c1ccc(B(O)O)cc1` [4-(N-allylsulfamoyl)phenylboronic acid]: the pKa is given as about 7.4.
